Reference: patent US12728177B2, “Disinfectant composition with rapid antiviral efficacy” (priority 2015, dated 2026)
Structures can show the parent of a compound that is named as a salt.

Tested on: Bacteriophage Phi X174 (ATCC 13706-81)
Test: Virucidal infectivity (percent reduction in virus infectivity, E. coli outgrowth with resazurin dye);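 also: exposed phage diluted into broth, E. coli outgrowth followed 16-24 h at 37 °C by fluorescence rate, unexposed phage set as 100% signal, phage-free as 0%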
Conditions: 10-minute exposure
[1] = secondary agent 3 mM + Maleic Acid 3 mM
[2] = secondary agent 3 mM + Phosphonc Acid 50-150 mM
[3] = secondary agent 3 mM + Sulfosuccinic Acid 10-32 mM
[4] = secondary agent 2-7 mM + Maleic Acid 3 mM
[5] = secondary agent 2-7 mM + Phosphonc Acid 50-150 mM
[6] = secondary agent 2-7 mM + Sulfosuccinic Acid 10-32 mM
[7] = secondary agent 9 mM + Maleic Acid 3 mM
[8] = secondary agent 9 mM + Phosphonc Acid 50-150 mM
[9] = secondary agent 9 mM + Sulfosuccinic Acid 10-32 mM
[10] = secondary agent 28 mM + Maleic Acid 3 mM
[11] = secondary agent 28 mM + Phosphonc Acid 50-150 mM
[12] = secondary agent 28 mM + Sulfosuccinic Acid 10-32 mM
[13] = secondary agent 85 mM + Maleic Acid 3 mM
[14] = secondary agent 85 mM + Phosphonc Acid 50-150 mM
[15] = secondary agent 85 mM + Sulfosuccinic Acid 10-32 mM

Procedure: Bacteriophage Phi X174 (ATCC 13706-81) was added 1:10 (−108 plaque forming units (PFU) per sample) into a solution containing the composition of interest. Following a 10-minute exposure, the sample was transferred 1:10 into Tryptic Soy Broth (TSB). Following 10 minutes in TSB, a second 1:10 dilution was completed into an outgrowth solution for the Phi X174 host (E. coli ATCC 13706) that contained TSB and a resazurin dye. E. coli outgrowth was then monitored at 37° C. for 16-24 hours and the rate of fluorescence development was calculated. The rate observed when Phi X174 was not exposed to any composition represented a 100% Phi X174 signal. The rate observed without Phi X174 present represented a “0% signal.” The rate obtained following Phi X174 exposure to a given composition was compared to the signal obtained with no exposure to calculate the “percent reduction in virus infectivity.”

N=C(N)N [Guanidine Hydrochloride]
% Reduction, Secondary Antiviral Agent Alone (agent alone 6 mM): 0%
% Reduction, Secondary Antiviral Agent Alone (agent alone 18 mM): 0%
% Reduction, Secondary Antiviral Agent Alone (agent alone 55 mM): 0%
% Reduction, Secondary Antiviral Agent Alone (agent alone 164 mM): 0%
reduction in virus infectivity, in Combination with Maleic Acid (3 mM) [1]: 0%
reduction in virus infectivity, in Combination with Phosphonc Acid (50-150 mM) [2]: 40%
reduction in virus infectivity, in Combination with Sulfosuccinic Acid (10-32 mM) [3]: 10%
reduction in virus infectivity, in Combination with Maleic Acid (3 mM) (secondary agent 10 mM + Maleic Acid 3 mM): 0%
reduction in virus infectivity, in Combination with Phosphonc Acid (50-150 mM) (secondary agent 10 mM + Phosphonc Acid 50-150 mM): 34%
reduction in virus infectivity, in Combination with Sulfosuccinic Acid (10-32 mM) (secondary agent 10 mM + Sulfosuccinic Acid 10-32 mM): 12%
reduction in virus infectivity, in Combination with Maleic Acid (3 mM) (secondary agent 29 mM + Maleic Acid 3 mM): 0%
reduction in virus infectivity, in Combination with Phosphonc Acid (50-150 mM) (secondary agent 29 mM + Phosphonc Acid 50-150 mM): 34%
reduction in virus infectivity, in Combination with Sulfosuccinic Acid (10-32 mM) (secondary agent 29 mM + Sulfosuccinic Acid 10-32 mM): 1%
reduction in virus infectivity, in Combination with Maleic Acid (3 mM) (secondary agent 86 mM + Maleic Acid 3 mM): 0%
reduction in virus infectivity, in Combination with Phosphonc Acid (50-150 mM) (secondary agent 86 mM + Phosphonc Acid 50-150 mM): 46%
reduction in virus infectivity, in Combination with Sulfosuccinic Acid (10-32 mM) (secondary agent 86 mM + Sulfosuccinic Acid 10-32 mM): 0%

[Cl-].[Cl-].[Zn+2] [Zinc Chloride]
% Reduction, Secondary Antiviral Agent Alone (agent alone 2 mM): 5%
% Reduction, Secondary Antiviral Agent Alone (agent alone 6 mM): 0%
% Reduction, Secondary Antiviral Agent Alone (agent alone 18 mM): 0%
% Reduction, Secondary Antiviral Agent Alone (agent alone 53 mM): 0%
reduction in virus infectivity, in Combination with Maleic Acid (3 mM) (secondary agent 53 mM + Maleic Acid 3 mM): 0%
reduction in virus infectivity, in Combination with Phosphonc Acid (50-150 mM) (secondary agent 53 mM + Phosphonc Acid 50-150 mM): 88%
reduction in virus infectivity, in Combination with Sulfosuccinic Acid (10-32 mM) (secondary agent 53 mM + Sulfosuccinic Acid 10-32 mM): 99%
reduction in virus infectivity, in Combination with Maleic Acid (3 mM) [4]: 99%
reduction in virus infectivity, in Combination with Phosphonc Acid (50-150 mM) [5]: 10%
reduction in virus infectivity, in Combination with Sulfosuccinic Acid (10-32 mM) [6]: 99%
reduction in virus infectivity, in Combination with Maleic Acid (3 mM) (secondary agent 6-13 mM + Maleic Acid 3 mM): 99%
reduction in virus infectivity, in Combination with Phosphonc Acid (50-150 mM) (secondary agent 6-13 mM + Phosphonc Acid 50-150 mM): 28%
reduction in virus infectivity, in Combination with Sulfosuccinic Acid (10-32 mM) (secondary agent 6-13 mM + Sulfosuccinic Acid 10-32 mM): 99%
reduction in virus infectivity, in Combination with Maleic Acid (3 mM) (secondary agent 18-26 mM + Maleic Acid 3 mM): 99%
reduction in virus infectivity, in Combination with Sulfosuccinic Acid (10-32 mM) (secondary agent 18-26 mM + Sulfosuccinic Acid 10-32 mM): 99%

CCCCCCCCCCO[C@@H]1O[C@H](CO)[C@@H](O)[C@H](O)[C@H]1O [EcoSense 3000, Decyl Glucoside]
% Reduction, Secondary Antiviral Agent Alone (agent alone 8 mM): 14%
% Reduction, Secondary Antiviral Agent Alone (agent alone 23 mM): 0%
% Reduction, Secondary Antiviral Agent Alone (agent alone 69 mM): 0%
% Reduction, Secondary Antiviral Agent Alone (agent alone 207 mM): 0%
reduction in virus infectivity, in Combination with Maleic Acid (3 mM) (secondary agent 0.3 mM + Maleic Acid 3 mM): 0%
reduction in virus infectivity, in Combination with Maleic Acid (3 mM) (secondary agent 1 mM + Maleic Acid 3 mM): 0%
reduction in virus infectivity, in Combination with Maleic Acid (3 mM) (secondary agent 7 mM + Maleic Acid 3 mM): 0%
reduction in virus infectivity, in Combination with Maleic Acid (3 mM) (secondary agent 37 mM + Maleic Acid 3 mM): 0%

N=C(N)NN [Aminoguanidine Hydrochloride]
% Reduction, Secondary Antiviral Agent Alone (agent alone 6 mM): 2%
% Reduction, Secondary Antiviral Agent Alone (agent alone 18 mM): 7%
% Reduction, Secondary Antiviral Agent Alone (agent alone 53 mM): 4%
% Reduction, Secondary Antiviral Agent Alone (agent alone 158 mM): 1%
reduction in virus infectivity, in Combination with Maleic Acid (3 mM) [1]: 12%
reduction in virus infectivity, in Combination with Phosphonc Acid (50-150 mM) [2]: 50%
reduction in virus infectivity, in Combination with Sulfosuccinic Acid (10-32 mM) [3]: 0%
reduction in virus infectivity, in Combination with Maleic Acid (3 mM) [7]: 4%
reduction in virus infectivity, in Combination with Phosphonc Acid (50-150 mM) [8]: 86%
reduction in virus infectivity, in Combination with Sulfosuccinic Acid (10-32 mM) [9]: 0%
reduction in virus infectivity, in Combination with Maleic Acid (3 mM) [10]: 0%
reduction in virus infectivity, in Combination with Phosphonc Acid (50-150 mM) [11]: 50%
reduction in virus infectivity, in Combination with Sulfosuccinic Acid (10-32 mM) [12]: 4%
reduction in virus infectivity, in Combination with Maleic Acid (3 mM) [13]: 0%
reduction in virus infectivity, in Combination with Phosphonc Acid (50-150 mM) [14]: 99%
reduction in virus infectivity, in Combination with Sulfosuccinic Acid (10-32 mM) [15]: 13%

Aluminum chlorohydrate
% Reduction, Secondary Antiviral Agent Alone (agent alone 2 mM): 1%
% Reduction, Secondary Antiviral Agent Alone (agent alone 6 mM): 3%
% Reduction, Secondary Antiviral Agent Alone (agent alone 18 mM): 2%
% Reduction, Secondary Antiviral Agent Alone (agent alone 55 mM): 9%
reduction in virus infectivity, in Combination with Maleic Acid (3 mM) (secondary agent 55 mM + Maleic Acid 3 mM): 99%
reduction in virus infectivity, in Combination with Phosphonc Acid (50-150 mM) (secondary agent 55 mM + Phosphonc Acid 50-150 mM): 68%
reduction in virus infectivity, in Combination with Sulfosuccinic Acid (10-32 mM) (secondary agent 55 mM + Sulfosuccinic Acid 10-32 mM): 99%
reduction in virus infectivity, in Combination with Maleic Acid (3 mM) [4]: 17%
reduction in virus infectivity, in Combination with Phosphonc Acid (50-150 mM) [5]: 43%
reduction in virus infectivity, in Combination with Sulfosuccinic Acid (10-32 mM) [6]: 99%
reduction in virus infectivity, in Combination with Maleic Acid (3 mM) (secondary agent 6-14 mM + Maleic Acid 3 mM): 28%
reduction in virus infectivity, in Combination with Phosphonc Acid (50-150 mM) (secondary agent 6-14 mM + Phosphonc Acid 50-150 mM): 34%
reduction in virus infectivity, in Combination with Sulfosuccinic Acid (10-32 mM) (secondary agent 6-14 mM + Sulfosuccinic Acid 10-32 mM): 99%
reduction in virus infectivity, in Combination with Maleic Acid (3 mM) (secondary agent 18-27 mM + Maleic Acid 3 mM): 9%
reduction in virus infectivity, in Combination with Phosphonc Acid (50-150 mM) (secondary agent 18-27 mM + Phosphonc Acid 50-150 mM): 29%
reduction in virus infectivity, in Combination with Sulfosuccinic Acid (10-32 mM) (secondary agent 18-27 mM + Sulfosuccinic Acid 10-32 mM): 99%

NC(N)=O [Urea]
% Reduction, Secondary Antiviral Agent Alone (agent alone 7 mM): 0%
% Reduction, Secondary Antiviral Agent Alone (agent alone 20 mM): 0%
% Reduction, Secondary Antiviral Agent Alone (agent alone 60 mM): 0%
% Reduction, Secondary Antiviral Agent Alone (agent alone 180 mM): 0%
reduction in virus infectivity, in Combination with Maleic Acid (3 mM) [1]: 8%
reduction in virus infectivity, in Combination with Phosphonc Acid (50-150 mM) [2]: 57%
reduction in virus infectivity, in Combination with Sulfosuccinic Acid (10-32 mM) [3]: 1%
reduction in virus infectivity, in Combination with Maleic Acid (3 mM) [7]: 6%
reduction in virus infectivity, in Combination with Phosphonc Acid (50-150 mM) [8]: 71%
reduction in virus infectivity, in Combination with Sulfosuccinic Acid (10-32 mM) [9]: 0%
reduction in virus infectivity, in Combination with Maleic Acid (3 mM) [10]: 1%
reduction in virus infectivity, in Combination with Phosphonc Acid (50-150 mM) [11]: 53%
reduction in virus infectivity, in Combination with Sulfosuccinic Acid (10-32 mM) [12]: 25%
reduction in virus infectivity, in Combination with Maleic Acid (3 mM) [13]: 0%
reduction in virus infectivity, in Combination with Phosphonc Acid (50-150 mM) [14]: 56%
reduction in virus infectivity, in Combination with Sulfosuccinic Acid (10-32 mM) [15]: 0%

[Cl][Cu][Cl] [Copper (II) Chionde]
% Reduction, Secondary Antiviral Agent Alone (agent alone 1 mM): 20%
% Reduction, Secondary Antiviral Agent Alone (agent alone 4 mM): 18%
% Reduction, Secondary Antiviral Agent Alone (agent alone 9 mM): 23%
% Reduction, Secondary Antiviral Agent Alone (agent alone 27 mM): 99%
reduction in virus infectivity, in Combination with Maleic Acid (3 mM) (secondary agent 26 mM + Maleic Acid 3 mM): 70%
reduction in virus infectivity, in Combination with Phosphonc Acid (50-150 mM) (secondary agent 26 mM + Phosphonc Acid 50-150 mM): 99%
reduction in virus infectivity, in Combination with Sulfosuccinic Acid (10-32 mM) (secondary agent 26 mM + Sulfosuccinic Acid 10-32 mM): 99%
reduction in virus infectivity, in Combination with Maleic Acid (3 mM) (secondary agent 1-3 mM + Maleic Acid 3 mM): 72%
reduction in virus infectivity, in Combination with Phosphonc Acid (50-150 mM) (secondary agent 1-3 mM + Phosphonc Acid 50-150 mM): 44%
reduction in virus infectivity, in Combination with Sulfosuccinic Acid (10-32 mM) (secondary agent 1-3 mM + Sulfosuccinic Acid 10-32 mM): 94%
reduction in virus infectivity, in Combination with Maleic Acid (3 mM) (secondary agent 4-6 mM + Maleic Acid 3 mM): 57%
reduction in virus infectivity, in Combination with Phosphonc Acid (50-150 mM) (secondary agent 4-6 mM + Phosphonc Acid 50-150 mM): 87%
reduction in virus infectivity, in Combination with Sulfosuccinic Acid (10-32 mM) (secondary agent 4-6 mM + Sulfosuccinic Acid 10-32 mM): 96%
reduction in virus infectivity, in Combination with Maleic Acid (3 mM) (secondary agent 11-13 mM + Maleic Acid 3 mM): 38%
reduction in virus infectivity, in Combination with Phosphonc Acid (50-150 mM) (secondary agent 11-13 mM + Phosphonc Acid 50-150 mM): 80%
reduction in virus infectivity, in Combination with Sulfosuccinic Acid (10-32 mM) (secondary agent 11-13 mM + Sulfosuccinic Acid 10-32 mM): 99%

O=C(O)/C=C\C(=O)O [Maleic Acid]
reduction in virus infectivity, Primary Antiviral Agent without secondary agent (None) (Maleic Acid 3 mM, no secondary agent): 1-8%
